This experiment concerns the target recombinant eIF4E (Homo sapiens (Human), UniProt P06730). Description: Fluorescence polarization competition assay for eIF4E binding potency. The procedure, abridged: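 IC50 derived from fluorescence polarization over an 8-point, 3-fold compound series after 30 min room-temperature equilibration in the dark. Mix: eIF4E 75 nM pre-bound 5 min to 20 nM EDA-m^7GDP-ATTO-550; buffer 20 mM Tris pH 7.5, 100 mM NaCl, 1 mM DTT, 0.02% Tween-20; DMSO 1%.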

Where [1] appears, read: inhibition of eIF4E/EDA-m7GDP-ATTO-550 binding, calculated IC50 values, Table 4B, read-out: IC50.
Where [2] appears, read: fluorescence polarization competition, 75 nM recombinant eIF4E, 20 nM EDA-m7GDP-ATTO-550, IC50 class, read-out: elF4E FP.
Where [3] appears, read: inhibition of eIF4E/EDA-m7GDP-ATTO-550 binding by 50%, Table 4B calculated values, read-out: IC50.

SMILES strings stand for the structures. Like-named read-outs stand apart in the source and are kept apart here.

Chain of recombinant eIF4E (P06730 whole entry): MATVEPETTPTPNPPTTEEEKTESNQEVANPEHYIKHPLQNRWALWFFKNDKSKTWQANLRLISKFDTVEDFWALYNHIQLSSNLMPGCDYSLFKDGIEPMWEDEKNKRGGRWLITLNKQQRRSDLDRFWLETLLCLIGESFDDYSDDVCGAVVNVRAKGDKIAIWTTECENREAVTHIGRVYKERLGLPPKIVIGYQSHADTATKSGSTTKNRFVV

With `Cc1cc(-c2cc(Cl)ccc2OCCn2c(C)nc3c(C4CC4)ncc(Cl)c3c2=O)c2scc(C(=O)O)c2n1` [compound 1963], the IC50 under setting [1] is 241 nM.

On to `Cc1cc(-c2cc(Cl)ccc2OCCn2c(C)nc3c(ccc4cnncc43)c2=O)c2scc(C(=O)O)c2n1` [compound 671], for which the IC50 is 50 to 1000 nM under setting [2] and 77.7 nM under setting [3].

With `Cc1nc2cnc(N(C)C3CCN(CC4(C(F)(F)F)CCO4)CC3)c(C#N)c2c(=O)n1CC#Cc1ccc(Cl)cc1-c1ccnc2c(C(=O)O)csc12` (stereo not drawn) [compound 1717], under setting [1], the IC50 is 13.4 nM.

Take `Cc1nc2cc(C(F)(F)F)cc(C#N)c2c(=O)n1CCOc1ccc(Cl)cc1-c1cc(CN(C)C)nc2c(C(=O)O)csc12` [compound 636]: the IC50 is less than 50 nM under setting [2] and 33.2 nM under setting [3].

Regarding `Cc1nc2cc(Cl)c3c(cnn3C)c2c(=O)n1CCOc1ccc(Cl)cc1-c1ccnc2c(C(=O)O)csc12` [compound 720], the IC50 by setting is: under setting [2], 50 to 1000 nM; under setting [3], 199 nM.

With `Cc1cc(-c2cc(Cl)ccc2OCCn2c(C)nc3c(C)nc(-c4ccccc4C)c(C#N)c3c2=O)c2scc(C(=O)O)c2n1` [compound 479], the IC50 under setting [2] is less than 50 nM.

Take `Cc1cc(-c2cc(Cl)ccc2OCCn2c(C)nc3cc(C(F)(F)F)c(N4CCN(CC(F)F)CC4)c(C#N)c3c2=O)c2scc(C(=O)O)c2n1` [compound 428]: the IC50 under setting [2] is less than 50 nM and the IC50 under setting [3] was 7.45 nM.

`Cc1nc2cnc(N3CCC4(CC3)CCN4CC(F)F)c(C#N)c2c(=O)n1CCOc1ccc(Cl)cc1-c1ccnc2c(C(=O)O)csc12` [compound 1647]: the IC50 under setting [1] was 19.6 nM.

Take `Cc1cc(-c2cc(Cl)ccc2OCCn2c(C)nc3cc(C(F)(F)F)c(-c4ccncc4F)c(C#N)c3c2=O)c2scc(C(=O)O)c2n1` [compound 344]: the IC50 reads like this: under setting [2], less than 50 nM; under setting [3], 32.1 nM.

As to `CCN(c1ncc2nc(C)n(CC#Cc3ccc(Cl)cc3-c3ccnc4c(C(=O)NS(=O)(=O)C(C)C)csc34)c(=O)c2c1C#N)C1CCN(C2COC2)CC1` [compound 1746], under setting [1], the IC50 was 10.8 nM.

As for `Cc1nc2cnc(N(C)C3CCN(CC(F)F)CC3)c(C#N)c2c(=O)n1C(C)C#Cc1ccc(Cl)cc1-c1ccnc2c(C(=O)O)csc12` (stereo not drawn) [compound 1557], the IC50 under setting [1] is 6.77 nM.

As to `CCc1cc(-c2cc(Cl)ccc2OCCn2c(C)nc3cc(C(F)(F)F)c(-c4ccncc4)c(C#N)c3c2=O)c2scc(C(=O)O)c2n1` [compound 1012], the IC50 under setting [2] was less than 50 nM and the IC50 under setting [3] was 8.94 nM.

Take `Cc1cc(-c2cc(Cl)ccc2OCCn2c(C)nc3cc(C(F)(F)F)c(N4CCC(C)(C)CC4)nc3c2=O)c2scc(C(=O)O)c2n1` [compound 801]: the IC50 is less than 50 nM under setting [2] and 17 nM under setting [3].

Take `Cc1nc2cnc(N(C)C3CCN(CC4(C(F)(F)F)CC4)CC3)c(C#N)c2c(=O)n1CC#Cc1ccc(Cl)cc1-c1ccnc2c(C(=O)O)csc12` [compound 1587]: the IC50 under setting [1] was 39.7 nM.

As to `Cc1nc2cc(C(F)(F)F)cc(C#N)c2c(=O)n1CCOc1ccc(Cl)cc1-c1cncc(-c2nn[nH]n2)c1` [compound 660], the IC50 was 50 to 1000 nM under setting [2] and 258 nM under setting [3].

Regarding `Cc1nc2cnc(N(C)C3CCN(C(C)(C)C(F)(F)F)CC3)c(C#N)c2c(=O)n1CC#Cc1ccc(Cl)cc1-c1ccnc2c(C(=O)O)csc12` [compound 1507], the IC50 under setting [1] was 16 nM.

As to `Cc1cc(-c2cc(Cl)ccc2OCCn2c(C)nc3cc(CN(C)C)c(OC(F)F)c(C#N)c3c2=O)c2scc(C(=O)NS(C)(=O)=O)c2n1` [compound 451], the IC50 was less than 50 nM under setting [2] and 36 nM under setting [3].

Consider `N#Cc1cncc2nc(C(F)F)n(CCOc3ccc(Cl)cc3-c3cccc(C(=O)O)c3)c(=O)c12` [compound 1983], for which the IC50 under setting [1] is 82.6 nM.

In the case of `Cc1cc(-c2cc(Cl)ccc2OCCn2c(C)nc3cnc(N(C)CC(F)(F)F)c(C#N)c3c2=O)c2scc(C(=O)O)c2n1` [compound 971], the IC50 reads like this: under setting [2], 50 to 1000 nM; under setting [3], 57.8 nM.

Regarding `Cc1nc2cc(C(F)(F)F)c(N3CCN(C)CC3)c(C#N)c2c(=O)n1CCOc1ccc(Cl)cc1-c1ccnc2c(C(=O)NS(C)(=O)=O)csc12` [compound 1151], the IC50 is, setting by setting: under setting [2], less than 50 nM; under setting [3], 19 nM.

As for `Cc1nc2cc(C#N)c(OC(F)F)c(C#N)c2c(=O)n1CCOc1ccc(Cl)cc1-c1ccnc2c(C(=O)O)csc12` [compound 547], the IC50 is 50 to 1000 nM under setting [2] and 134 nM under setting [3].

Take `Cc1nc2cnc(N(C)C3CCN(C4CC(F)(F)C4)CC3)c(C#N)c2c(=O)n1CC#Cc1ccc(Cl)cc1-c1ccnc2c(C(=O)NS(=O)(=O)CCC#N)csc12` [compound 1826]: under setting [1], the IC50 is 18.4 nM.

On to `Cc1cc(-c2cc(Cl)ccc2OCCn2c(C)nc3cc(C(F)(F)F)c(N4CCN(C)CC4)cc3c2=O)c2scc(C(=O)O)c2n1` [compound 427], for which the IC50 under setting [2] was less than 50 nM and the IC50 under setting [3] was 25 nM.

For the molecule `Cc1nc2cnc(C3=CCNCC3)c(C#N)c2c(=O)n1CCOc1ccc(Cl)cc1-c1ccnc2c(C(=O)O)csc12` [compound 1626], under setting [1], the IC50 was 30.3 nM.

Regarding `Cc1cc(-c2cc(Cl)ccc2OCCn2c(C)nc3ccc(CN4CCN(C)CC4)c(C#N)c3c2=O)c2scc(C(=O)O)c2n1` [compound 647], the IC50 was less than 50 nM under setting [2] and 19.8 nM under setting [3].

With `Cc1cc(-c2cc(CN3CCN(C)CC3)ccc2OCCn2c(C)nc3cc(F)c(CN4CCN(C)CC4)c(C#N)c3c2=O)c2scc(C(=O)O)c2n1` [compound 2027], the IC50 under setting [1] is more than 1000 nM.

Regarding `Cc1nc2c(C(F)(F)F)ccc(C#N)c2c(=O)n1CCOc1ccc(Cl)cc1-c1cccc(C(=O)O)c1` [compound 142], the IC50 runs as follows: under setting [2], 50 to 1000 nM; under setting [3], 152 nM.

As to `Cc1cc(-c2cc(Cl)ccc2OCCn2c(C)nc3cc(F)c(-c4cnc(C)s4)c(C#N)c3c2=O)c2scc(C(=O)O)c2n1` [compound 921], the IC50 is 50 to 1000 nM under setting [2] and 69.6 nM under setting [3].

Regarding `Cc1nc2cc(C(F)(F)F)c(CN3CCN(C)CC3)c(C#N)c2c(=O)n1CCOc1ccc(Cl)cc1-c1ccnc2c(C(=O)O)csc12` [compound 502], the IC50 under setting [2] is less than 50 nM and the IC50 under setting [3] is 38.4 nM.

For the molecule `Cc1cc(-c2cc(Cl)ccc2OCCn2c(C)nc3cc(Cl)c(N4CCC(O)C4)c(C#N)c3c2=O)c2scc(C(=O)O)c2n1` (stereo not drawn) [compound 1054], the IC50 by setting is: under setting [2], less than 50 nM; under setting [3], 18.6 nM.

For `Cc1nc2cc(C(F)(F)F)c(N3CCN(C)CC3)c(C#N)c2c(=O)n1CCOc1ccc(Cl)cc1-c1ccnc2ccsc12` [compound 705], the IC50 is less than 50 nM under setting [2] and 19.1 nM under setting [3].

Turning to `CCc1cc(-c2cc(Cl)ccc2OCCn2c(N)nc3cc(Cl)cc(C#N)c3c2=O)c2scc(C(=O)O)c2n1` [compound 1077], the IC50 reads like this: under setting [2], 50 to 1000 nM; under setting [3], 245 nM.

Take `Cc1cc(-c2cc(Cl)ccc2OCCn2c(C)nc3cnc(-c4ccc5ncsc5c4)c(C#N)c3c2=O)c2scc(C(=O)O)c2n1` [compound 993]: the IC50 under setting [2] is less than 50 nM and the IC50 under setting [3] is 15.6 nM.

As to `Cc1nc(N2CCN(CC(F)F)CC2)c(C#N)c2c(=O)n(CCOc3ccc(Cl)cc3-c3ccnc4c(C(=O)O)csc34)c(C)nc12` [compound 1274], the IC50 under setting [1] was 40.2 nM.

In the case of `CCc1ncccc1-c1c(C(F)(F)F)cc2nc(C)n(CCOc3ccc(Cl)cc3-c3cc(C)nc4c(C(=O)O)csc34)c(=O)c2c1C#N` [compound 466], the IC50 reads like this: under setting [2], less than 50 nM; under setting [3], 9.3 nM.

For the molecule `Cc1nc2cnc(N(C)C3CCN(C4(C(F)(F)CO)CC4)CC3)c(C#N)c2c(=O)n1CC#Cc1ccc(Cl)cc1-c1ccnc2c(C(=O)O)csc12` [compound 1131], the IC50 under setting [2] is less than 50 nM and the IC50 under setting [3] was 14.7 nM.

As for `Cc1nc2cc(C(F)(F)F)c(N3CCN(c4ccncc4)CC3)c(C#N)c2c(=O)n1CCOc1ccc(Cl)cc1-c1cccc(C(=O)O)c1` [compound 387], the IC50 runs as follows: under setting [2], 50 to 1000 nM; under setting [3], 619 nM.

As to `CCc1cc(-c2cc(Cl)ccc2OCCn2c(C)nc3cc(C(F)(F)F)c(CC4CCN(C)CC4)c(C#N)c3c2=O)c2scc(C(=O)O)c2n1` [compound 1275], the IC50 under setting [1] is 58.7 nM.

Turning to `Cc1cnc(-c2nc3c(=O)n(CCOc4ccc(Cl)cc4-c4cc(C)nc5c(C(=O)O)csc45)c(C)nc3cc2C(F)(F)F)c(C)n1` [compound 1023], the IC50 runs as follows: under setting [2], less than 50 nM; under setting [3], 49.8 nM.

Regarding `Cc1nc2c(c(=O)n1CC#Cc1ccc(Cl)cc1-c1ccnc3c(C(=O)NS(=O)(=O)CC(C)(C)C#N)csc13)C(C#N)=C(N(C)C1CCN(CC(F)(F)F)CC1)NC2` [compound 1672], under setting [1], the IC50 was 13.2 nM.

For the molecule `CCc1nc2cnccc2c(=O)n1CCOc1ccc(Cl)cc1-c1cccc(C(=O)O)c1` [compound 70], the IC50 under setting [2] fell in the range of 50 to 1000 nM and the IC50 under setting [3] was 432 nM.

For the molecule `Cc1nc2cnc(/C=C/CN(C)CCF)c(C#N)c2c(=O)n1CCOc1ccc(Cl)cc1-c1ccnc2c(C(=O)O)csc12` [compound 1328], under setting [1], the IC50 was 24.8 nM.

Turning to `Cc1cc(-c2cc(Cl)ccc2OCCn2c(C)nc3cc(C(F)(F)F)c(-c4cn(C)nc4C)c(C#N)c3c2=O)c2scc(C(=O)O)c2n1` [compound 1031], the IC50 reads like this: under setting [2], less than 50 nM; under setting [3], 11.6 nM.

As to `Cc1c(C(F)F)c2cc(C(F)(F)F)cc(C#N)c2c(=O)n1CCOc1ccc(Cl)cc1-c1ccnc2c(C(=O)O)csc12` [compound 269], the IC50 is less than 50 nM under setting [2] and 15.6 nM under setting [3].

Regarding `Cc1nc2cnc(N3CC4(CCN4CC(F)F)C3)c(C#N)c2c(=O)n1CCOc1ccc(Cl)cc1-c1ccnc2c(C(=O)O)csc12` [compound 1634], the IC50 under setting [1] was 17.4 nM.

Turning to `Cc1cc(-c2cc(Cl)ccc2OCCn2c(C)nc3cc(Cl)c(N4CC(S(C)(=O)=O)C4)c(C#N)c3c2=O)c2scc(C(=O)O)c2n1` [compound 702], the IC50 is, setting by setting: under setting [2], less than 50 nM; under setting [3], 12.7 nM.

(Values after patent US11286268B1, “EIF4E-inhibiting compounds and methods” (EFFECTOR THERAPEUTICS, INC., priority 2019, dated 2022).)
